# Source: paper PMC3883635, “Two Different Conformations in Hepatitis C Virus p7 Protein Account for Proton Transport and Dye Release” (PLoS ONE, 2014)
# Target: T1, HCV-p7 (synthetic p7_1-63) (Hepatitis C virus (isolate H77), UniProt P27958)
# T1 construct: mature p7 of the HCV genome polyprotein; synthetic peptide (solid-phase), extra N-terminal Met (residue 0); 63 residues plus 1; in DPhPC membranes
# Assay: single channel recording in black lipid membrane
# Format: biochemical
# Conditions: DPhPC membranes; 10 µM methanol solution of p7 added; read after five minutes; concentration of HMA not in text
# T1 sequence (P27958 747-809): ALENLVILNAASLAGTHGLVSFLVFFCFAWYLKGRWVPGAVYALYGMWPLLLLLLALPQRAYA
structure (smiles),measurement,value
N=C(N)NC(=O)c1nc(Cl)c(N2CCCCCC2)nc1N [HMA],channel block,HCV-p7 ion channel activity is blocked by HMA in a full trace of different voltages
